Results: patent US9796753B2, “N-substituted indenoisoquinolines and syntheses thereof” (Purdue Research Foundation, priority 2005, dated 2017)
Read-outs that look alike come from different tables or passages of the source.

Columns and labels:
[1] = test system: breast MDA-MB-435; experiment: COMPARE screening (NCI human cancer cell line screen), cytotoxicity GI50; assay type: cell-based
Method: COMPARE screening. The compounds described herein were examined for antiproliferative activity against the human cancer cell lines in the National Cancer Institute screen (COMPARE screening), in which the activity of each compound was evaluated with approximately 55 different cancer cell lines of diverse tumor origins. […] Therefore, the MGM value represents an overall assessment of toxicity of the compound across numerous cell lines.

[2] = test system: all human cancer cell lines successfully tested; experiment: NCI screen mean graph midpoint (MGM) for growth inhibition; assay type: cell-based
Procedure, shortened: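 NCI60 panel cells exposed to compound at 100, 10, 1, 0.1 and 0.01 μM for 48 h, then sulforhodamine B staining. Percentage growth versus control plotted against log concentration; MGM is the midpoint across all lines tested.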

[3] = test system: panel of twelve human tumor cell lines; experiment: Hollow fiber assay; assay type: in vivo; design: key to IP Score / SC score / Total score: 2 points each time viable cell mass falls ≥50% vs vehicle controls; key to Cell kill: A net cell kill at one or more implant sites is indicated with a Y; conditions: for IP Score: intraperitoneal fibers in athymic nude mice, score 2 per 50% or greater reduction in viable cell mass; for IP Score / SC score: compounds IP once daily, four doses, two dose levels; for SC score: subcutaneous fibers in athymic nude mice; for Total score: sum of IP and SC scores; for Cell kill: net cell kill at one or more implant sites
Method: Hollow Fiber Activity. […] The effects of the compounds on the reduction of viable cancer cell mass compared to those of controls were determined. Each compound was tested in the hollow fiber assay against a panel of twelve human tumor cell lines as described previously; see, Hollingshead, M.; Plowman, J.; Alley, M.; Mayo, J.; Sausville, E., The Hollow Fiber Assay. Contrib. Oncol. 1999, 54, 109-120; and Plowman, J.; Camalier, R.; Alley, M.; Sausville, E.; Schepartz, S. Contrib. Oncol. […] The compounds were solubilized in 10% DMSO in saline/Tween-80® and administered intraperitoneally once daily for a total of four doses at each of two dose levels. The two doses were selected based on single dose toxicity studies for each derivative. A score of 2 was assigned each time the compound produced a 50% or greater reduction in viable cell mass compared to vehicle-treated controls. The score for each compound was summed for the intraperitoneal fibers and the subcutaneous fibers to provide the total score for each derivative as shown in Table 3 and Table 4. For comparative purposes, the score for the clinically used anticancer drug paclitaxel is provided.

[4] = test system: ovarian OVCAR-3; experiment: COMPARE screening (NCI human cancer cell line screen), cytotoxicity GI50; assay type: cell-based
Procedure, shortened: (§1)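 Compounds went into the NCI developmental therapeutics 60-cell-line screen at 100, 10, 1, 0.1 and 0.01 μM. After 48 h incubation, sulforhodamine B staining gave optical densities used to derive percentage growth.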

[5] = test system: CNS SF-539; experiment: as above; assay type: cell-based
Procedure, shortened: as §1

[6] = test system: lung HOP-62; experiment: as above; assay type: cell-based
Procedure, shortened: as §1

[7] = test system: colon HCT-116; experiment: as above; assay type: cell-based
Procedure, shortened: as §1

[8] = test system: renal SN12C; experiment: as above; assay type: cell-based
Procedure, shortened: as §1

[9] = test system: melanoma UACC-62; experiment: as above; assay type: cell-based
Procedure, shortened: as §1

[10] = test system: prostate DU-145; experiment: as above; assay type: cell-based
Procedure, shortened: as §1

[11] = all human cancer cell lines successfully tested
[12] = breast MDA-MB-435, concentration corresponding to 50% growth inhibition, read-out: cytotoxicity (GI50 in μM) breast MDA-MB-435
[13] = ovarian OVCAR-3, concentration corresponding to 50% growth inhibition, read-out: cytotoxicity (GI50 in μM) ovarian OVCAR-3
[14] = CNS SF-539, concentration corresponding to 50% growth inhibition, read-out: cytotoxicity (GI50 in μM) CNS SF-539
[15] = lung HOP-62, concentration corresponding to 50% growth inhibition, read-out: cytotoxicity (GI50 in μM) lung HOP-62
[16] = colon HCT-116, concentration corresponding to 50% growth inhibition, read-out: cytotoxicity (GI50 in μM) colon HCT-116
[17] = renal SN12C, concentration corresponding to 50% growth inhibition, read-out: cytotoxicity (GI50 in μM) renal SN12C
[18] = melanoma UACC-62, concentration corresponding to 50% growth inhibition, read-out: cytotoxicity (GI50 in μM) melanoma UACC-62
[19] = Table 1, average GI50 of all cell lines tested (approximately 55), test range 10^−8 to 10^−4 molar

SMILES	GI50 [1] [µM]	IP Score ([3]; Table 4)	SC score ([3]; Table 4)	Total score ([3]; Table 4)	GI50 [4] [µM]	GI50 [5] [µM]	GI50 [6] [µM]	GI50 [7] [µM]	GI50 [8] [µM]	GI50 [9] [µM]	GI50 [10] [µM]	MGM (mean graph midpoint for growth inhibition) [2, 19] [µM]	further results
O=C(O)C(F)(F)F.O=C(O)C(F)(F)F.O=C(O)C(F)(F)F.O=C1c2ccccc2-c2c1c1ccccc1c(=O)n2CCNCCNCCNCCn1c2c(c3ccccc3c1=O)C(=O)c1ccccc1-2 [Compound 14i, Bis{(5,6-dihydro-5,11-diketo-11H-indeno[1,2-c]isoquinoline)-6-ethylamino-ethyl}amine Tris(trifluoroacetate)]	1	10	6	16	1.15	0.275	0.048	0.112	0.017	0.269	0.331		MGM (mean graph midpoint for growth inhibition) [2, 11]: 0.474 ± 0.143 µM
O=C(O)C(F)(F)F.O=C(O)C(F)(F)F.O=C1c2ccccc2-c2c1c1ccccc1c(=O)n2CCNCCCNCCn1c2c(c3ccccc3c1=O)C(=O)c1ccccc1-2 [Compound 14d, Bis-1,3-{(5,6-dihydro-5,11-diketo-11H-indeno[1,2-c]isoquinoline)-6-ethylamino}propane Bis(trifluoroacetate)]		2	4	6									GI50 [1, 12]: 0.024 µM; MGM (mean graph midpoint for growth inhibition) [2, 11]: 0.122 ± 0.064 µM; GI50 [4, 13]: 0.093 µM; GI50 [5, 14]: 0.155 µM; GI50 [6, 15]: 0.339 µM; GI50 [7, 16]: < 0.005 µM; GI50 [8, 17]: < 0.005 µM; GI50 [9, 18]: 0.182 µM; GI50 ([10]; prostate DU-145, concentration corresponding to 50% growth inhibition, read-out: cytotoxicity (GI50 in μM) prostate DU-145): 0.079 µM
COc1cc2c3c(n(CCCN4CCCC(O)C4)c(=O)c2cc1OC)-c1cc2c(cc1C3=O)OCO2.Cl (stereo not shown) [Compound 5s, 6-[3-(3-Hydroxypiperidinyl)-1-propyl]-5,6-dihydro-2,3-dimethoxy-8,9-methylenedioxy-5,11-dioxo-11H-indeno[1,2-c]isoquinoline Hydrochloride]	0.977					< 0.005	< 0.005	< 0.005	0.126	5.01	< 0.005	0.243 ± 0.088	IP Score ([3]; Table 3): 6; SC score ([3]; Table 3): 0; Total score ([3]; Table 3): 6; GI50 ([4]; Table 1, concentration corresponding to 50% growth inhibition, read-out: cytotoxicity (GI50) ovarian OVCAR-3): 5.75 µM
O=C(O)C(F)(F)F.O=C(O)C(F)(F)F.O=C1c2ccccc2-c2c1c1ccccc1c(=O)n2CCCNCCCNCCCn1c2c(c3ccccc3c1=O)C(=O)c1ccccc1-2 [Compound 14g, Bis-1,3-{(5,6-dihydro-5,11-diketo-11H-indeno[1,2-c]isoquinoline)-6-propylamino}propane Bis(trifluoroacetate)]		26	6	32									GI50 [1, 12]: 0.107 µM; MGM (mean graph midpoint for growth inhibition) [2, 11]: 0.394 ± 0.33 µM; GI50 [4, 13]: 0.074 µM; GI50 [5, 14]: 0.011 µM; GI50 [6, 15]: < 0.01 µM; GI50 [7, 16]: < 0.01 µM; GI50 [8, 17]: < 0.01 µM; GI50 [9, 18]: 0.042 µM
O=C(O)C(F)(F)F.O=C(O)C(F)(F)F.O=C1c2ccccc2-c2c1c1ccccc1c(=O)n2CCCNCCCCNCCCn1c2c(c3ccccc3c1=O)C(=O)c1ccccc1-2 [Compound 14h, Bis-1,4-{(5,6-dihydro-5,11-diketo-11H-indeno[1,2-c]isoquinoline)-6-propylamino}butane Bis(trifluoroacetate)]	0.676	12	4	16	0.135	0.251	0.525	< 0.005	< 0.005	0.562	0.234		MGM (mean graph midpoint for growth inhibition) [2, 11]: 0.225 ± 0.084 µM
CC(=O)O[C@H]1C(=O)[C@@]2(C)[C@H]([C@H](OC(=O)c3ccccc3)[C@]3(O)C[C@H](OC(=O)[C@H](O)[C@@H](NC(=O)c4ccccc4)c4ccccc4)C(C)=C1C3(C)C)[C@]1(OC(C)=O)CO[C@@H]1C[C@@H]2O [Paclitaxel, paclitaxel, reference compound]		24	8	32									IP Score ([3]; Table 3): 24; Cell kill ([3]; Table 3): Y; SC score ([3]; Table 3): 8; Total score ([3]; Table 3): 32; Cell kill ([3]; Table 4): Y
COc1ccc2c(c1)C(=O)c1c-2n(CCCN(C)C)c(=O)c2ccccc12 [Compound 5bq]	0.617				0.427	0.24	0.078	0.102	0.245	1	0.257	0.300 ± 0.072	
CN(C)CCCn1c2c(c3cc4c(cc3c1=O)OCO4)C(=O)c1ccccc1-2 [Compound 5b]	3.02				2.63	2.69	< 0.01	< 0.01	0.023	0.3	2.04		MGM (mean GI50 across cell lines) [2, 19]: 0.525 µM
COc1ccc2c(c1)C(=O)c1c-2n(CCCN=[N+]=[N-])c(=O)c2ccccc12 [Compound 5bf]	64.6				52.5	44.7	33.9	26.9	> 100	75.9	61.7		MGM (mean GI50 across cell lines) [2, 19]: 38.9 µM
Cl.O=C1c2ccccc2-c2c1c1ccc([N+](=O)[O-])cc1c(=O)n2CCCNCCO [Compound 5bl]	1.07				1.35	> 100	0.031	0.027	0.229	0.2	> 100	0.296 ± 0.067	
Cl.NCCn1c2c(c3ccccc3c1=O)C(=O)c1ccccc1-2 [Compound 5al]	0.92				0.71	0.21	0.62	0.27	0.49	0.92	0.76	0.530 ± 0.320	
COc1ccc2c(c1)C(=O)c1c-2n(CCCn2ccnc2)c(=O)c2cc([N+](=O)[O-])ccc12 [Compound 5br]	< 0.01				0.02	< 0.01	< 0.01	< 0.01	< 0.01	< 0.01	< 0.01	0.019 ± 0.004	
COc1cc2c3c(n(CCCN4CCN(C)CC4)c(=O)c2cc1OC)-c1cc2c(cc1C3=O)OCO2 [Compound 5t]	> 100				15.1	17.8	18.2	1.48	11.5	15.1	10.7		MGM (mean GI50 across cell lines) [2, 19]: 12.0 µM
COc1cc2c3c(n(CCCn4cccn4)c(=O)c2cc1OC)-c1cc2c(cc1C3=O)OCO2 [Compound 5m]	7.08				56.2	0.398	0.447	1.99	0.316	0.269	0.363	2.16 ± 0.24	
O=C1c2ccccc2-c2c1c1ccccc1c(=O)n2CCNCCO [Compound S-2, oracin, reference compound]	2.56				3.85	1.65	1.62	1.12	0.95	1.42	1.28	1.90 ± 0.80	
